The results in this text go back to patent US20110212899A1, “Corneal Neuritogenesis Promoter Containing Pacap and Its Derivative” (priority 2004, published 2011).

Test [1] relates to excised rabbit lacrimal gland. In words: Promoting effect on protein secretion from an excised lacrimal gland (2) (Test Example 5). It counts as cell-based. As to conditions: 10^−7 M, incubated 60 minutes; p<0.05. The method, then: A lacrimal gland was excised from a rabbit and incubated in a solution containing PACAP27 or peptide 24, and changes in the amount of secreted protein were examined as lacrimal gland stimulating activity.
Japanese white rabbits with a body weight of 1.5 to 2.0 kg purchased from Fukusaki Rabbit warren were used. The animals were each put in separate cages placed in a room wherein a temperature of 23±3° C. and a humidity of 55±10% were kept and a light was on for 12 hours per day (lighting at 8:00 and lights-out at 20:00), and raised after arrival until the final day of the test. The animals were given 100 g of solid feed (Labo R Stock, Nosan Corporation) per day, and could freely have tap water.
PACAP27 and peptide 24 were used as test substances. Test substance solutions were prepared as follows. […]
The section sample in a stationary state was incubated in 0.5 mL of a fresh incubation solution at 37° C. for 20 minutes under a mixed gas atmosphere of 95% oxygen and 5% carbon dioxide. After completion of the incubation, the incubation solution was collected, and the protein amount in the solution was determined by using a protein staining reagent (DC Protein Assay Reagent, Bio Rad). […] The incubation solution was collected, and the protein amount in the incubation solution was determined. […]

Test [2] deals with rabbit cornea (corneal flap model). The test is described as follows: Improving effect on reduced sensitivity of the rabbit cornea caused by using a microkeratome (2) (Test Example 7). In kind it is in vivo. As to conditions: 0.01% eye drops, 50 μL 4 times a day for 8 weeks; 7 and 8 weeks after creation of the corneal flap. The method, then:
Male Japanese white rabbits with a body weight of 1.5 to 2.0 kg purchased from Kitayama Labes Co., Ltd were used. The animals were each put in separate cages placed in a room wherein a temperature of 23±3° C. and a humidity of 55±10% were kept and a light was on for 12 hours per day (lighting at 8:00 and lights-out at 20:00), and raised after arrival until the final day of the test. The animals were given 100 g of solid feed (Labo R Stock, Nosan Corporation) per day, and could freely have tap water.
Peptide 24 was used as a test substance. The test substance was dissolved in the following vehicle solution at a concentration of 0.01% to prepare eye drops. […]
Corneal sensitivity was measured before the surgery and once a week from the first week to the eighth week after the surgery using the Cochet-Bonnet aesthesiometer.
Corneal sensitivity was determined by the frequency of eyeblink responses induced when a nylon filament attached to the Cochet-Bonnet aesthesiometer was contacted the center of the cornea of the animal. […] When the animal was judged to have corneal sensitivity twice or more, the maximum value (the longest length of the nylon filament of the aesthesiometer) was recorded as corneal sensitivity of the individual at that measurement time point. The measurement was blind trial so that an examiner could not know which group the rabbit being measured belonged to. […]

Where no end group is shown, it is not given here.

Consider “His-Ser-Asp-Ala-Ile-Phe-Thr-Asp-Ser-Tyr-Ser-Arg-Tyr-Arg-Arg-Gln-Leu-Ala-Val-Arg-Arg-Tyr-Leu-Ala-Ala-Val-Leu-Gly-Arg-Arg-NH2 (HSDAIFTDSYSRYRRQLAVRRYLAAVLGRR-NH2) [Peptide 24]”, for which the “protein secretion rate of excised lacrimal gland compared with control group” value in test [1] is on record as “significant increase”. For the same substance, in test [2], the “corneal sensitivity (Cochet-Bonnet aesthesiometer) compared with control group” value is “statistically significant improving effect”.
